Reference: patent US20030229451A1, “Methods and systems for analyzing complex biological systems” (priority 2001, published 2003)

Tested on: Saccharomyces cerevisiae wild type strain BY4743
Assay: AF1 metabolite analysis (GC-MS, LC-MS) of yeast cells treated with antifungal drugs
Assay type: cell-based
Conditions: for # Compounds perturbed: 2x MIC, two hours

C[C@@H]1[C@H](O)[C@@H](C)/C=C/C=C/C=C/C=C/C=C/C=C/C=C/[C@H](O[C@@H]2O[C@H](C)[C@@H](O)[C@H](N)[C@@H]2O)C[C@@H]2O[C@](O)(C[C@@H](O)C[C@@H](O)[C@H](O)CC[C@@H](O)C[C@@H](O)CC(=O)O[C@H]1C)C[C@H](O)[C@H]2C(=O)O [Amphoteracin B]
# Compounds perturbed (P < 0.05): 16 | # Compounds perturbed (P < 0.1): 21 | Fold Change (platform GC): −0.933 | Fold Change, TMS mevalonic acid lactone (platform GC): −0.9767 | Fold Change, alanine (platform GC): −0.7773 | Fold Change, asparagine (platform GC): −1 | Fold Change, aspartic acid (platform GC): −0.9743 | Fold Change, campesterol (platform GC): 0 | Fold Change, desmosterol (platform GC): 0 | Fold Change, disaccaride1 (platform GC): −1 | Fold Change, disaccaride2 (platform GC): −0.9977 | Fold Change, disaccaride3 (platform GC): −0.9977 | Fold Change, ergosterol (platform GC): 2.303 | Fold Change, fucosterol (platform GC): −0.6553 | Fold Change, glutamine (platform GC): −0.9116 | Fold Change, glycanopyrose (platform GC): −0.958 | Fold Change, glycerol (platform GC): −0.815 | Fold Change, glycine (platform GC): 0.8807 | Fold Change, hexadecanoic acid (platform GC): −0.2427 | Fold Change, iso citric acid (platform GC): −0.6183 | Fold Change, isoleucine (platform GC): −0.9533 | Fold Change, lanosterol (platform GC): −1 | Fold Change, leucine (platform GC): −0.9443 | Fold Change, lysine (platform GC): −0.3925 | Fold Change, malic acid (platform GC): −0.963 | Fold Change, mevalonic acid lactone (platform GC): −0.1276 | Fold Change, octadecanoic acid (platform GC): 0.21 | Fold Change, oleic acid (platform GC): −0.4593 | Fold Change, ornithine2 (platform GC): −1 | Fold Change, ornithine3 (platform GC): −0.9853 | Fold Change, palmiteliadic acid (platform GC): 0.515 | Fold Change, phenylalanine (platform GC): −0.9797 | Fold Change, phosphate (platform GC): −0.007333 | Fold Change, pyrimidine (platform GC): −0.185 | Fold Change, squalene (platform GC): −0.5745 | Fold Change, tetradecanoic acid (platform GC): 0.07967 | Fold Change, threonine2 (platform GC): −0.8553 | Fold Change, threonine3 (platform GC): −0.8933 | Fold Change, tms glutamine3 (platform GC): −0.8935 | Fold Change, tms lysine4 (platform GC): −0.9783 | Fold Change, tms tyrosine2 (platform GC): −0.3593 | Fold Change, tms tyrosine3 (platform GC): −0.9473 | Fold Change, valine (platform GC): −0.8673 | Fold Change, 2-ketobutyric acid (platform nLC): −0.9992 | Fold Change, 2-ketoglutaric (platform nLC): 8.791 | Fold Change, 3-indolylacetonitri (platform nLC): −0.9998 | Fold Change, 4-methylcatechol (platform nLC): 0 | Fold Change, 4aminobutyrate/dimg (platform nLC): −0.1983 | Fold Change, 5hydroxyLtryptophan (platform nLC): 0 | Fold Change, 6-benzylaminopurine (platform nLC): 0 | Fold Change, DLaminoadipic acid (platform nLC): 1.411 | Fold Change, NacetylDglucosamine (platform nLC): 0 | Fold Change, NacetylLglutamate (platform nLC): −0.1078 | Fold Change, NacetylLornithine (platform nLC): 0 | Fold Change, abscisic acid (platform nLC): 0 | Fold Change, aconitic acid (platform nLC): 0.5426 | Fold Change, adenine (platform nLC): 0 | Fold Change, adenosine (platform nLC): 0 | Fold Change, alanine (platform nLC): 0.1599 | Fold Change, allantoic acid (platform nLC): −0.1456 | Fold Change, allantoin (platform nLC): 3.97 | Fold Change, anthranilic acid (platform nLC): 0 | Fold Change, arginine (platform nLC): −0.4885 | Fold Change, argininosuccinate (platform nLC): 0 | Fold Change, asparagine (platform nLC): 0.1511 | Fold Change, aspartic (platform nLC): 0.2407 | Fold Change, benzoic acid (platform nLC): 0 | Fold Change, biotin (platform nLC): 1.077 | Fold Change, caffeic acid (platform nLC): −0.5882 | Fold Change, catechol (platform nLC): 0 | Fold Change, cinnamic acid (platform nLC): 0 | Fold Change, citricanoic/itaconi. (platform nLC): 0 | Fold Change, citrulline (platform nLC): 1659 | Fold Change, coumaric acid (platform nLC): 0 | Fold Change, cytidine (platform nLC): −0.9986 | Fold Change, cytosine (platform nLC): 0 | Fold Change, decanoic acid (platform nLC): −0.08716 | Fold Change, diaminopimelic acid (platform nLC): 0 | Fold Change, dihydrofolic acid (platform nLC): 0 | Fold Change, estrone (platform nLC): 0 | Fold Change, farnesol (platform nLC): 0 | Fold Change, folic acid (platform nLC): 0 | Fold Change, fumaric/3m2oxobutan (platform nLC): 0.4423 | Fold Change, gallic acid (platform nLC): 0.1622 | Fold Change, gibberellic (platform nLC): 0 | Fold Change, glucosamine6PO4 (platform nLC): −0.9951 | Fold Change, glutamic/acetylseri (platform nLC): 0.1414 | Fold Change, glutamine/lysine (platform nLC): 0.07919 | Fold Change, guanine (platform nLC): 0 | Fold Change, guanosine (platform nLC): 1.131 | Fold Change, histidine (platform nLC): 0 | Fold Change, homogentisic/uric (platform nLC): 0 | Fold Change, hydrocortisone (platform nLC): 0 | Fold Change, hypoxanthine (platform nLC): 0.1655 | Fold Change, indole3pyruvic acid (platform nLC): 0 | Fold Change, inostol/glucos/sorb (platform nLC): −0.5905 | Fold Change, isocitric/citric/qu (platform nLC): 2.549 | Fold Change, jasmonic acid (platform nLC): 0 | Fold Change, kinetin (platform nLC): 0 | Fold Change, lactic acid (platform nLC): −0.02583 | Fold Change, lauric acid (platform nLC): 0.1225 | Fold Change, leucine/isoleucine/ (platform nLC): 0.1319 | Fold Change, luteolin (platform nLC): 0 | Fold Change, malic acid (platform nLC): 0.6212 | Fold Change, malonic acid (platform nLC): 0 | Fold Change, menthol* (platform nLC): −0.07013 | Fold Change, methionine (platform nLC): 0 | Fold Change, nicotinic acid (platform nLC): 0.3131 | Fold Change, nopaline (platform nLC): 0.3342 | Fold Change, oleic acid (platform nLC): 0.689 | Fold Change, ornithine (platform nLC): 2.534 | Fold Change, orotic acid (platform nLC): 8380 | Fold Change, palmitic acid (platform nLC): 0.3979 | Fold Change, phenylalanine (platform nLC): −0.1906 | Fold Change, phenylpyruvic acid (platform nLC): 0 | Fold Change, phosphoenolpyruvate (platform nLC): 0 | Fold Change, pinitol (platform nLC): 0 | Fold Change, pipecolic acid (platform nLC): 0.08112 | Fold Change, porphobilinogen (platform nLC): 0 | Fold Change, proline (platform nLC): 0.4603 | Fold Change, pyridoxine (platform nLC): −0.1294 | Fold Change, retinoic acid (platform nLC): 0 | Fold Change, salicylic/HObenzoic (platform nLC): 0 | Fold Change, selenoDLmethionine (platform nLC): 0.8515 | Fold Change, serine (platform nLC): 0.1091 | Fold Change, shikimic acid (platform nLC): 0 | Fold Change, sinapinic acid (platform nLC): 0 | Fold Change, sorbitol/mannitol (platform nLC): 0.2162 | Fold Change, succinic (platform nLC): 0.8663 | Fold Change, sucrose (platform nLC): 0.4493 | Fold Change, sugar-phosphate (platform nLC): −0.1067 | Fold Change, tetradecanoic acid (platform nLC): −0.07723 | Fold Change, threonine/homoserin (platform nLC): 0.1267 | Fold Change, thymine (platform nLC): 0 | Fold Change, tryptophan (platform nLC): 1.142 | Fold Change, tyrosine (platform nLC): 0.0982 | Fold Change, uracil (platform nLC): 1.511 | Fold Change, uridine (platform nLC): 0.1126 | Fold Change, urocanic acid (platform nLC): 0 | Fold Change, valine (platform nLC): 0.1624 | Fold Change, xanthosineDiH2O (platform nLC): 0 | Fold Change, zeatin (platform nLC): 0 | Fold Change, 4-aminobenzoic acid (platform pLC): 0 | Fold Change, 4-methylcatechol (platform pLC): 0 | Fold Change, 4ambutyrate/dimglyc (platform pLC): 0.01279 | Fold Change, 5hydroxyLtryptophan (platform pLC): 0 | Fold Change, 6benzylaminopurine (platform pLC): 0 | Fold Change, DL-aminoadipic acid (platform pLC): 0.4703 | Fold Change, NacetylDglucosamine (platform pLC): 0 | Fold Change, NacetylLglutamate (platform pLC): 0 | Fold Change, NacetylLornithine (platform pLC): 1.319 | Fold Change, abscisic acid (platform pLC): 0 | Fold Change, adenine (platform pLC): 0.1153 | Fold Change, adenosine (platform pLC): 0 | Fold Change, alanine/sarcosine (platform pLC): 0.2602 | Fold Change, allantoic acid (platform pLC): 0 | Fold Change, anthranilic acid (platform pLC): 0 | Fold Change, arginine (platform pLC): 0.4662 | Fold Change, argininosuccinate (platform pLC): 0 | Fold Change, asparagine (platform pLC): 0.6344 | Fold Change, aspartic acid (platform pLC): 0.3594 | Fold Change, biotin (platform pLC): 0 | Fold Change, caffeine (platform pLC): 0 | Fold Change, citric acid TME (platform pLC): 0 | Fold Change, citrulline (platform pLC): 1.798 | Fold Change, cytidine (platform pLC): 0 | Fold Change, cytosine (platform pLC): 0 | Fold Change, diaminopimelic acid (platform pLC): 0 | Fold Change, dihydrofolic acid (platform pLC): 0 | Fold Change, dipicolinic acid (platform pLC): 0 | Fold Change, folic acid (platform pLC): 0 | Fold Change, glucosamine (platform pLC): 0 | Fold Change, glucosamine6PO4 (platform pLC): 0 | Fold Change, glutamate (platform pLC): 0.4341 | Fold Change, glutamine/lysine (platform pLC): 0.3981 | Fold Change, glutathione (platform pLC): −0.03348 | Fold Change, guanosine (platform pLC): 0.7598 | Fold Change, histidine (platform pLC): 0 | Fold Change, hydrocortisone (platform pLC): 0 | Fold Change, hypoxanthine (platform pLC): 0.2057 | Fold Change, itaconic acid dimes (platform pLC): 0 | Fold Change, kinetin (platform pLC): 0 | Fold Change, leucine/isoleucine/ (platform pLC): 0.2746 | Fold Change, luteolin (platform pLC): 0 | Fold Change, mannitol (platform pLC): 0.4543 | Fold Change, methionine (platform pLC): 0.3299 | Fold Change, mevalonic lactone (platform pLC): −0.4606 | Fold Change, niacinamide (platform pLC): 0 | Fold Change, nicotinic acid (platform pLC): −0.9989 | Fold Change, nopaline (platform pLC): 0 | Fold Change, ornithine (platform pLC): 0.5049 | Fold Change, phenylalanine (platform pLC): 0.4036 | Fold Change, phosphoenolpyruvate (platform pLC): 0 | Fold Change, pipecolic acid (platform pLC): 0.5237 | Fold Change, progesterone (platform pLC): 0 | Fold Change, proline (platform pLC): 0.6707 | Fold Change, pyridoxine (platform pLC): −0.1684 | Fold Change, riboflavin (platform pLC): 0 | Fold Change, selenoDLmethionine (platform pLC): 1.178 | Fold Change, serine (platform pLC): 0.2011 | Fold Change, sugar-phosphate (platform pLC): 0 | Fold Change, thiamine (platform pLC): 0 | Fold Change, threonine/homoserin (platform pLC): 0.3145 | Fold Change, thymine (platform pLC): 0 | Fold Change, tryptophan (platform pLC): 0 | Fold Change, tyrosine (platform pLC): 0.2347 | Fold Change, uric acid (platform pLC): 308 | Fold Change, urocanic acid (platform pLC): 0 | Fold Change, xanthosine(diH2O) (platform pLC): 0 | Fold Change, zeatin (platform pLC): 0
